From ChEMBL document CHEMBL4376831, “Enhancing the Cell Permeability of Stapled Peptides with a Cyclic Cell-Penetrating Peptide” (J Med Chem, 2019) come the findings set out here.

Activity calls are given as the source filed them. No cut-off for these calls is given here. *1 amine or outer side, *2 acyl side, *3 side chain or, on linkers, in order; H or OH if unused. Where a SMILES comes first, the peptide text is derived from it. Bridges are numbered along the chain shown (N, C = ends). [ ]: non-standard residue; d: D form. The star is where a group is joined. X2 = O=C(O)c1cc(C(=O)*)ccc1-c1c2ccc3cc(O)ccc3c2oc2c1ccc1cc(=O)ccc12; mXylylene = c1cc(C[*:1])cc(C[*:2])c1; AEEA = NCCOCCOCC(=O)O; βAla = NCCC(=O)O

For data set [1], the system named is HeLa. Description: Cytotoxicity against human HeLa cells incubated for 72 hrs using FAM-labeled compound by MTT assay. Format: cell-based. Background: Tetrazolium assays rely on reduction of a dye to a coloured formazan, in cell work by metabolically active cells.
The subject of data set [2] is HeLa. Description: Induction of cell membrane disruption in human HeLa cells incubated for 4 hrs using FAM-labeled compound by LDH assay. It counts as cell-based.
The test system of data set [3] is SJSA-1. Particulars: Homo sapiens.
A further data set relates to SW480. As to the kind of experiment: Antiproliferative activity against human SW480 cells incubated for 72 hrs by MTT assay. It counts as functional, cell-based. Particulars: SW480, 72 h.
Another data set has as its system MCF7. As to the kind of experiment: Antiproliferative activity against human MCF7 cells incubated for 72 hrs by MTT assay. It counts as functional, cell-based.
Data set [4] can be described thus: Permeability of the compound in human HeLa cells at 5 uM incubated for 2 hrs by flow cytometric analysis relative to CPP9. Format: ADME, cell-based. On the technique in general: Flow cytometry measures light scatter and fluorescence of single cells or particles in a stream.
The subject of data set [5] is SJSA-1. As to the kind of experiment: Antiproliferative activity against human SJSA1 cells expressing wild-type p53 upto 20 uM incubated for 72 hrs by MTT assay. Format: functional, cell-based.
Data set [6] deals with SJSA-1. As to the kind of experiment: cells. As to conditions: Homo sapiens, SJSA-1, 72 h.

Turning to `CC(=O)N[C@@H](Cc1ccc(O)cc1)C(=O)NCC(=O)N[C@@H](CCCNC(=N)N)C(=O)N[C@@H](CCCCN)C(=O)N[C@@H](CCCCN)C(=O)N[C@@H](CCCNC(=N)N)C(=O)N[C@@H](CCCNC(=N)N)C(=O)N[C@@H](CCC(N)=O)C(=O)N[C@@H](CCCNC(=N)N)C(=O)N[C@@H](CCCNC(=N)N)C(=O)N[C@@H](CCCNC(=N)N)C(=O)NCCCC[C@H](NC(=O)COCCOCCNC(=O)[C@H](CO)NC(=O)[C@@H](NC(=O)[C@H](CC(C)C)NC(=O)[C@H](CCC(N)=O)NC(=O)[C@@H]1CCCCNC(=O)C[C@H](NC(=O)[C@H](Cc2ccccc2)NC(=O)[C@@H](NC(=O)[C@H](CC(C)C)NC(C)=O)[C@@H](C)O)C(=O)N[C@@H](Cc2cnc[nH]2)C(=O)N[C@@H](Cc2ccc(O)cc2)C(=O)N[C@@H](Cc2c[nH]c3ccccc23)C(=O)N1)[C@@H](C)O)C(N)=O`, the Activity result in the data set with HeLa [1] and with HeLa [2] was “Toxic” throughout. The outcome in the data set on SJSA-1 [3] was inactive.
The molecule `CC[C@H](C)[C@@H]1NC(=O)[C@@H](NC(=O)[C@H](CCC(=O)O)NC(=O)[C@@H]2CCCN2C(=O)[C@H](Cc2ccc(O)cc2)NC(=O)CNC(=O)CNC(C)=O)CC(=O)NCCCC[C@@H](C(=O)N[C@@H](Cc2cnc[nH]2)C(=O)N[C@@H](CC(C)C)C(=O)N[C@@H](CCC(N)=O)C(=O)N[C@@H](CCCNC(=N)N)C(=O)N[C@H](C(=O)N[C@H](C(=O)N[C@@H](CC(C)C)C(=O)NCCOCCOCC(=O)NCCOCCOCC(=O)N[C@@H](CNC(=O)[C@H](CCCNC(=N)N)NC(=O)[C@H](CCCNC(=N)N)NC(=O)[C@H](CCCNC(=N)N)NC(=O)[C@H](CCC(N)=O)NC(=O)[C@H](CCCNC(=N)N)NC(=O)[C@H](CCCNC(=N)N)NC(=O)[C@H](CCCCN)NC(=O)[C@H](CCCCN)NC(=O)[C@H](CCCNC(=N)N)NC(=O)CNC(=O)[C@H](Cc2ccc(O)cc2)NC(C)=O)C(N)=O)[C@@H](C)CC)C(C)C)NC(=O)[C@H](CC(=O)O)NC(=O)[C@H](CC(C)C)NC1=O` returned an IC50 with SW480 of over 20 µM. In addition, in the data set on MCF7, the result was Active.
With `CC[C@H](C)[C@@H]1NC(=O)[C@@H](NC(=O)[C@H](CCC(=O)O)NC(=O)[C@@H]2CCCN2C(=O)[C@H](CC(N)=O)NC(=O)CCNC(=O)c2ccc(-c3c4ccc5cc(O)ccc5c4oc4c3ccc3cc(=O)ccc34)c(C(=O)O)c2)CSCc2cccc(c2)CSC[C@@H](C(=O)N[C@@H](Cc2cnc[nH]2)C(=O)N[C@H](C(=O)N[C@@H](CCC(N)=O)C(=O)N[C@@H](CCCNC(=N)N)C(=O)N[C@H](C(=O)N[C@@H](CCSC)C(N)=O)C(C)C)C(C)C)NC(=O)[C@H](CC(=O)O)NC(=O)[C@H](CC(C)C)NC1=O` ({X2-βAla}-NPECILDCHVQRVM-NH2; linker 4-8 via mXylylene), in data set [4], the permeability was 8.9%.
Still for that read-out and setting: with `CC[C@H](C)[C@@H]1NC(=O)[C@@H](NC(=O)[C@H](CCC(=O)O)NC(=O)[C@@H]2CCCN2C(=O)[C@H](CC(N)=O)NC(=O)[C@H](CCC(=O)O)NC(=O)CCNC(=O)c2ccc(-c3c4ccc5cc(O)ccc5c4oc4c3ccc3cc(=O)ccc34)c(C(=O)O)c2)CSCc2cccc(c2)CSC[C@@H](C(=O)N[C@@H](Cc2cnc[nH]2)C(=O)N[C@H](C(=O)N[C@@H](CCC(N)=O)C(=O)N[C@@H](CCCNC(=N)N)C(=O)N[C@H](C(=O)N[C@@H](CCSC)C(N)=O)C(C)C)C(C)C)NC(=O)[C@H](CC(=O)O)NC(=O)[C@H](CC(C)C)NC1=O` ({X2-βAla}-ENPECILDCHVQRVM-NH2; linker 5-9 via mXylylene) the figure was 2.5%.
On to `CC(=O)N[C@@H](CCCNC(=N)N)C(=O)N[C@@H](CCCNC(=N)N)C(=O)N[C@@H](CCCNC(=N)N)C(=O)N[C@@H](CCCNC(=N)N)C(=O)N[C@@H](CCCNC(=N)N)C(=O)N[C@@H](CCCNC(=N)N)C(=O)N[C@@H](CCCNC(=N)N)C(=O)N[C@@H](CCCNC(=N)N)C(=O)N[C@@H](CCCNC(=N)N)C(=O)NCCCC[C@H](NC(=O)COCCOCCNC(=O)[C@H](CO)NC(=O)[C@@H](NC(=O)[C@H](CC(C)C)NC(=O)[C@H](CCC(N)=O)NC(=O)[C@@H]1CCCCNC(=O)C[C@H](NC(=O)[C@H](Cc2ccccc2)NC(=O)[C@@H](NC(=O)[C@H](CC(C)C)NC(C)=O)[C@@H](C)O)C(=O)N[C@@H](Cc2cnc[nH]2)C(=O)N[C@@H](Cc2ccc(O)cc2)C(=O)N[C@@H](Cc2c[nH]c3ccccc23)C(=O)N1)[C@@H](C)O)C(N)=O`, for which the Activity result in the data set with HeLa [1] and in the data set with HeLa [2] was “Toxic” throughout. Further, in the data set on SJSA-1 [3], the result was inactive.
`CC[C@H](C)[C@@H]1NC(=O)[C@@H](NC(=O)[C@H](CCC(=O)O)NC(=O)[C@@H]2CCCN2C(=O)[C@H](Cc2ccc(O)cc2)NC(=O)CNC(=O)CNC(C)=O)CC(=O)NCCCC[C@@H](C(=O)N[C@@H](Cc2cnc[nH]2)C(=O)N[C@@H](CC(C)C)C(=O)N[C@@H](CCC(N)=O)C(=O)N[C@@H](CCCNC(=N)N)C(=O)N[C@H](C(=O)N[C@H](C(=O)N[C@@H](CC(C)C)C(=O)NCCOCCOCC(=O)NCCOCCOCC(=O)N[C@@H](CNC(=O)[C@H](CCCNC(=N)N)NC(=O)[C@H](CCCNC(=N)N)NC(=O)[C@H](CCCNC(=N)N)NC(=O)[C@H](CCCNC(=N)N)NC(=O)[C@H](CCCNC(=N)N)NC(=O)[C@H](CCCNC(=N)N)NC(=O)[C@H](CCCNC(=N)N)NC(=O)[C@H](CCCNC(=N)N)NC(=O)[C@H](CCCNC(=N)N)NC(C)=O)C(N)=O)[C@@H](C)CC)C(C)C)NC(=O)[C@H](CC(=O)O)NC(=O)[C@H](CC(C)C)NC1=O` came in with an IC50 with SW480 of over 20 µM. In the data set with MCF7, the outcome was Active.
`CC(=O)N[C@@H](CC(C)C)C(=O)N[C@H](C(=O)N[C@@H](Cc1ccccc1)C(=O)N[C@H]1CC(=O)NCCCC[C@@H](C(=O)N[C@@H](CCC(N)=O)C(=O)N[C@@H](CC(C)C)C(=O)N[C@H](C(=O)N[C@@H](CO)C(=O)NCCOCCOCC(=O)N[C@@H](CCCCN)C(N)=O)[C@@H](C)O)NC(=O)[C@H](Cc2c[nH]c3ccccc23)NC(=O)[C@H](Cc2ccc(O)cc2)NC(=O)[C@H](Cc2cnc[nH]2)NC1=O)[C@@H](C)O` (Ac-LTFDHYWKQLTS[AEEA]K-NH2; lactam 4-8): in the data set with SJSA-1 [5], the outcome was inactive.
Consider `COc1ccc(C2=N[C@@H](c3ccc(Cl)cc3)[C@@H](c3ccc(Cl)cc3)N2C(=O)N2CCNC(=O)C2)c(OC(C)C)c1` [NUTLIN-3], for which, in the data set with SJSA-1 [6], the EC50 turned out to be 4.2 µM.

Broadly, the IC50 is the concentration that gives 50% inhibition. A low value points to greater potency in that assay. One may read the EC50 as the concentration at which the effect is half-maximal.
